These results are taken from publication PMC8258697 (The Journal of Biological Chemistry, 2021).

In one assay the target is T1, Gal4-RXRα total mutant (Homo sapiens, UniProt P19793, E453R/F450Y/K284E/V280T/V298T).
T1 sequence (P19793 225-462 V280T/K284E/V298T/F450Y/E453R): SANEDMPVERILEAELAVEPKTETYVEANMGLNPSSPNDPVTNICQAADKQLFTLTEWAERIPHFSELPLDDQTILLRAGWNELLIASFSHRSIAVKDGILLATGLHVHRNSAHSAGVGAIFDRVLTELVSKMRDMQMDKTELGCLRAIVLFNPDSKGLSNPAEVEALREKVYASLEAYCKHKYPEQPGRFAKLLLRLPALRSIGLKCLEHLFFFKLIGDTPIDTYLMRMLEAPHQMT
Description: Gal4-RXRα total mutant / VP16-SRC1-2 hybrid reporter gene assay in HEK293T cells.

A further assay addresses T2, PPARγ LBD (Homo sapiens, UniProt P37231).
T2 construct: His10-tag with TEV site (N, cleaved yes); made in house; host or cells: E. coli T7 express (co-expressed with GroEL/ES)
T2 sequence (P37231 234-505): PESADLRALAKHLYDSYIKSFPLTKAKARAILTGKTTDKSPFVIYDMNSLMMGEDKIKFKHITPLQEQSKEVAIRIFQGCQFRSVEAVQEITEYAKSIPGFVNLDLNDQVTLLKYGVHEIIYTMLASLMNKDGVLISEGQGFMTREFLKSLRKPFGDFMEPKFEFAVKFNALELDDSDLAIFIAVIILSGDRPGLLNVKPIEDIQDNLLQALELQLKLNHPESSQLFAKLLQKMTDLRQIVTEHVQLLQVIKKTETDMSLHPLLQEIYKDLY
Description: Monomer cofactor recruitment HTRF assay: CBP-1 recruitment by isolated sGFP-PPARγ LBD. Format: biochemical. The conditions noted are these: titrated alone, or constant 10 μM against titrated rosiglitazone.

In a further assay the target is T3, RXRα LBD mutant (Homo sapiens, UniProt P19793, E453R/F450Y/K284E/V280T/V298T).
T3 construct: His10-tag with TEV site (N, cleaved yes); made in house; host or cells: E. coli T7 express (co-expressed with GroEL/ES)
T3 sequence (P19793 226-462 V280T/K284E/V298T/F450Y/E453R): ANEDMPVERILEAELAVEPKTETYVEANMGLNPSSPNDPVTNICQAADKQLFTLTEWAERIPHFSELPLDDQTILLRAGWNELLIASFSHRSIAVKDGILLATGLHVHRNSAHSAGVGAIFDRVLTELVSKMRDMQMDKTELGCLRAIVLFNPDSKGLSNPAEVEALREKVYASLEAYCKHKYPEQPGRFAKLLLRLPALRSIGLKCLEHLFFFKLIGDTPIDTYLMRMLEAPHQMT
Nature of the assay: NCOR1 corepressor displacement HTRF assay on sGFP-RXRα mutant LBD. Format: biochemical. The conditions noted are these: 100 nM sGFP-RXRα mutant LBD, 12 nM NCOR1 ID2.

The target in a further assay is T4, RXRα LBD total mutant (Homo sapiens, UniProt P19793, E453R/F450Y/K284E/V280T/V298T).
T4 construct: His10-tag with TEV site (N, cleaved yes); made in house; host or cells: E. coli T7 express (co-expressed with GroEL/ES)
T4 sequence (P19793 226-462 V280T/K284E/V298T/F450Y/E453R): T3 sequence (P19793 226-462 V280T/K284E/V298T/F450Y/E453R)
Nature of the assay: Coactivator recruitment HTRF assay on isolated RXRα LBD total mutant (SRC1-2 peptide). Format: biochemical. Conditions: 100 nM sGFP-RXRα LBD total mutant.

For a further assay, the target named is T5, PPARγ:RXRα heterodimer (Homo sapiens, UniProt P19793+P37231).
T5 construct: His10-tag with TEV site (N, cleaved yes); made in house; host or cells: E. coli T7 express (co-expressed with GroEL/ES)
T5 sequence (P37231 234-505): T2 sequence (P37231 234-505)
T5 sequence (P19793 226-462): T3 sequence (P19793 226-462 V280T/K284E/V298T/F450Y/E453R) with T55V, E59K, T73V, Y225F, R228E
Nature of the assay: PPARγ:RXRα heterodimer formation HTRF assay, sGFP-RXRα LBD titrated against biotinylated PPARγ LBD coupled to Tb-SA. Format: binding. The conditions noted are these: 10 μM ligand compared with no ligand.

A further assay addresses T6, RXRα wildtype LBD (Homo sapiens, UniProt P19793).
T6 construct: MBP-Asn10-His8-TEV site (N, cleaved yes); made in house; host or cells: E. coli T7 express (co-expressed with GroEL/ES)
T6 sequence (P19793 223-462): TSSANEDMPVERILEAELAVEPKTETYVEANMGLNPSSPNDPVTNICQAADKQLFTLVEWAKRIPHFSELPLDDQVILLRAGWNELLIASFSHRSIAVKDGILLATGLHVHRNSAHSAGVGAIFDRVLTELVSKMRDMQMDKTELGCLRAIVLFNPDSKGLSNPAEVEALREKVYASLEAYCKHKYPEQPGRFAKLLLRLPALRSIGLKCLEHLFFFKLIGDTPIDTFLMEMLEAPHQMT
Description: Isothermal titration calorimetry, RXRα wildtype LBD. Format: binding. Conditions: 25°C. How it is done:
SI method 1: LBD pulldown
In order to verify proper dimer formation capability of the majority of the protein preparation a pulldown experiment was performed. Therefore, small centrifugal filter columns (nylon membrane with […] pore size; VWR) were loaded with 20 µl of Pierce® high capacity streptavidin agarose beads (Thermo Scientific) equilibrated in HTRF buffer [25 mM HEPES pH 7.5, 150 mM KF, 10% (w/v) glycerol, 5 mM DTT (fresh)], then 20 µl of a mixture of biotin coupled RXRα LBD (4 µg) and the respective PPAR LBD (1.4 µg) was applied. After incubation for 10 min at room temperature followed by centrifugation for 2 min and 900 x g the input mixture as well as the flowthrough was analyzed via SDS PAGE. Gels were scanned using an Li-Cor Odyssey imager (LI-COR® Biosciences GmbH, Germany). […]
The heats of dilution resulting from titrating one of the RXRα LBD proteins into the cell containing only buffer were recorded separately and subtracted from the raw ITC data obtained with compound. Data were analyzed using the NanoAnalyze software package (version 3.7.5). […] Free energy change (ΔG) was calculated using the equation […]
and from there the entropy (ΔS) was calculated from […]
25 injections of 2 µl were performed after an initial injection of 0.5 µl. […] The heats of dilution resulting from titrating of protein into buffer were recorded separately and subtracted. […]

Residue numbers refer to the chain shown, from its start.

For the compound `CC1(C)CCC(C)(C)c2cc(C3(c4ccc(C(=O)O)cc4)OCCO3)ccc21` [SR11237], at Gal4-RXRα total mutant (RXRα mutant, compared with DMSO control), the “transactivation of reporter gene expression” value is reported as “substantial increase in transactivation”. Also, the “transactivation by the RXRα mutant in comparison with RXRα wt” value on Gal4-RXRα total mutant (at ≥ 0.1 μM SR11237) is given as “markedly reduced”. Further, the “effect on CBP-1 recruitment by isolated PPARγ LBD” value on PPARγ LBD is “neither activated recruitment of CBP-1 by PPARγ nor impaired rosiglitazone-mediated recruitment”. Moreover, on RXRα LBD mutant, the “effect on NCOR1 corepressor binding” value is “Agonist dependent displacement of NCOR1”. Besides, the “stimulation of SRC1-2 coactivator recruitment” value on RXRα LBD total mutant was “no stimulation of coactivator recruitment was observed”. For the same compound, the “effect on PPARγ:RXRα heterodimer formation” value on PPARγ:RXRα heterodimer was “significant stabilizing effect”. The “binding affinity (ITC)” value on RXRα wildtype LBD was “comparable affinity”.
